From patent US20180002295A1, “Compositions and Methods for Treating Anxiety and Compulsive Behavior” (University of Iowa Research Foundation, priority 2015, published 2018)
Entries after “also recorded” stand apart in the source; their conditions may differ.

Key:
SAPAP3-deficient mice [1] = experiment: Spray-induced grooming assay (baseline and spray-induced grooming) in SAPAP3-deficient mice; format: in vivo; settings: compared with wild type
SAPAP3-deficient mice [2] = settings: reference 4; cited from earlier work
[3] = intracerebroventricular infusion into left lateral ventricle for 7 days by osmotic minipump
[4] = intraperitoneal, 10 mg/kg/d, 10 mg/kg/day

CCOc1ccc2nc(N/C(=N/C(=O)CC)NC(=O)CC)nc(C)c2c1 [P5C6]
basal (baseline) grooming (SAPAP3-deficient mice [1]; [3]): normalized
spray-induced grooming (SAPAP3-deficient mice [1]; [3]): normalized

CNCCC(Oc1ccc(C(F)(F)F)cc1)c1ccccc1 (centres unmarked) [fluoxetine]
basal (baseline) grooming (SAPAP3-deficient mice [1]; [4]): restored to wild type levels; also recorded: normalized
spray-induced grooming (SAPAP3-deficient mice [1]; [4]): restored to wild type levels; also recorded: normalized
compulsive grooming leading to acquisition of facial lesions (SAPAP3-deficient mice [2]): ameliorated
